# Values quoted from earlier work as cited in US20010031278A1, “Sustained release oxycodone formulations with no fed/fast effect” (priority 1996, published 2001).
# Details: gastric fluid (pH about 1) vs intestinal fluid (pH about 7.5)
structure (smiles),measurement,value
COc1ccc2c3c1O[C@H]1C(=O)CC[C@@]4(O)[C@@H](C2)N(C)CC[C@]314.Cl [Oxycodone hydrochloride],solubility at low vs high pH,more soluble in gastric fluid (pH about 1) than in intestinal fluid (pH about 7.5)
